{"source": "patent US20090048328A1", "about": "“Compound Comprising Prodigiosin From Serratia Macescence B-1231 Kctc 0386Bp for Prevention and Treatment of Acute Graft-Versus-Host Disease” (priority 2005, published 2009)", "key": {"[1]": {"test_system": "acute graft-versus-host disease", "experiment": "Mouse survival in acute graft-versus-host disease after bone marrow transplantation", "format": "in vivo, Balb/c mouse", "settings": "1 mg/kg, peritoneal injections every other day", "excerpt": "(§1) To induce acute graft-versus-host disease, bone marrow cells (5×10^7 cells) and spleen cells (1×10^7 cells) of the C57BL/6 mouse were transplanted to the Balb/c mouse, which had been irradiated and had lost immune function."}, "[2]": {"test_system": "acute graft-versus-host disease", "format": "in vivo, Balb/c mouse", "settings": "1 mg/kg, peritoneal injections every other day; weight loss from 2nd to 6th day, regain from 7th day; control mice lost weight up to 9th day and died", "excerpt": "as §1"}, "T-cells [3]": {"test_system": "T-cells", "experiment": "ConA-induced T-cell proliferation, [3H]-thymidine incorporation", "format": "cell-based, C57BL/6 mouse", "settings": "1 μg/ml ConA; 3, 10, 30 ng/ml compound", "procedure": "(§2) T-cells were separated from the spleen of the C57BL/6 mouse for the experiment. 1 μg/ml concanavalin A (ConA) was used to generate the proliferation of T-cells, and 1 μg/ml lypopolysaccaride induced proliferation of the B-cells. The prodigiosin separated in Execution Example 1 was melted in dimethyl sulfoxide (DMSO) and was added to the culture medium in a manner to achieve a final concentration of 3, 10, 30 ng/ml. After 60 hours of cultivation, [^3H]-thymidine was added to the culture medium with a concentration of 1 μCi/well. After 12 hours, the cells were collected and the amount of radioactivity in the DNA was measured.\nT-cells were separated from the spleen of the C57BL/6 mouse for the experiment. 1 μg/ml ConA and 10 unit/ml IL-2 were used to generate the proliferation of T-cells. In the control group, 1 μg/ml ConA induced the proliferation of T-cells. […] After 12 hours, the cells were collected and the amount of radioactivity in the DNA was measured.\nT-cells were separated from the spleen of the C57BL/6 mouse for the experiment. […] After 12 hours, the cells were collected and the amount of radioactivity in the DNA was measured. […]\nProdigiosin was melted in DMSO and added to the culture medium in a manner to achieve a final concentration of 3, 10, 30 ng/ml. […] After 12 hours, the cells were collected and the amount of radioactivity in the DNA was measured. […]"}, "B-cells": {"test_system": "B-cells", "experiment": "Lipopolysaccharide-induced B-cell proliferation, [3H]-thymidine incorporation", "format": "cell-based, C57BL/6 mouse", "settings": "1 μg/ml lipopolysaccharide; 3, 10, 30 ng/ml compound", "procedure": "as §2"}, "IL-2 mRNA": {"test_system": "IL-2 mRNA", "experiment": "Expression of IL-2 mRNA in ConA-activated T-cells, RT-PCR", "format": "cell-based, C57BL/6 mouse", "settings": "1 μg/ml ConA, 4 hours, 3, 10, 30 ng/ml compound", "procedure": "T-cells were separated from the spleen of the C57BL/6 mouse for the experiment. 1 μg/m ConA was used to activate the T-cells. […]. After 4 hours of cultivation, the cells were collected. After separating the RNA from the cells, the degree of expression of IL-2 mRNA was measured through RT-PCR (reverse transcription-polymerase chain reaction)."}, "[4]": {"test_system": "IL-2 receptors (IL-2R alpha)", "experiment": "Expression of IL-2 receptor (IL-2R alpha) mRNA in ConA-activated T-cells, RT-PCR", "format": "cell-based, C57BL/6 mouse", "settings": "1 μg/ml ConA, 4 hours, 3, 10, 30 ng/ml compound"}, "T-cells [5]": {"test_system": "T-cells", "experiment": "T-cell proliferation induced by ConA plus added IL-2, [3H]-thymidine incorporation", "format": "cell-based, C57BL/6 mouse", "settings": "1 μg/ml ConA and 10 unit/ml IL-2; 3, 10, 30 ng/ml compound", "procedure": "(§3) T-cells were separated from the spleen of the C57BL/6 mouse for the experiment. 1 μg/ml ConA and 10 unit/ml IL-2 were used to generate the proliferation of T-cells. In the control group, 1 μg/ml ConA induced the proliferation of T-cells. Prodigiosin was melted in DMSO and added to the culture medium in a manner to achieve a final concentration of 3, 10, 30 ng/ml. After 60 hours of cultivation, [^3H]-thymidine was added to the culture medium with a concentration of 1 μCi/well. After 12 hours, the cells were collected and the amount of radioactivity in the DNA was measured.\nas §3, with “Prodigiosin was melted in DMSO and added to the culture medium in a manner to achieve a final concentration of 3, 10, 30 ng/ml.” left out"}, "IL-2 dependent T-cells": {"test_system": "IL-2 dependent T-cells", "experiment": "IL-2-dependent T-cell proliferation (ConA pre-treated cells), [3H]-thymidine incorporation", "format": "cell-based, C57BL/6 mouse", "settings": "cells pre-treated with 1 μg/ml ConA 48 hours, washed, 10 unit/ml IL-2; 3, 10, 30 ng/ml compound", "procedure": "(§4) In order to measure IL-2 dependent T-cell proliferation, T-cells separated from the spleen of the mouse were treated with 1 μg/ml ConA for 48 hours. Then, the cells were washed three times to get rid of all ConA for further experiment. […] 10 unit/ml IL-2 was added to the pre-treated cells to induce T-cell proliferation (IL-2-dependent T cell proliferation).\nProdigiosin was melted in DMSO and added to the culture medium in a manner to achieve a final concentration of 3, 10, 30 ng/ml. After 60 hours of cultivation, [^3H]-thymidine was added to the culture medium with a concentration of 1 μCi/well. After 12 hours, the cells were collected and the amount of radioactivity in the DNA was measured.\nas §4, with “all the” for “all”, “T-cell” for “T cell”\nAfter 60 hours of cultivation, [^3H]-thymidine was added to the culture medium with a concentration of 1 μCi/well. After 12 hours, the cells were collected and the amount of radioactivity in the DNA was measured."}}, "note": "Entries after “also recorded” stand apart in the source; their conditions may differ."}
{"smiles": "CCCCCC1=C/C(=C/c2[nH]c(-c3ccc[nH]3)cc2OC)N=C1C", "note": "[prodigiosin]", "values": [{"measurement": "Balb/c mice died six days after the cell transplantation", "setting": "[1]; control group 50% died by day 6", "result": 35, "unit": "%"}, {"measurement": "mice survived through to the end of the experiment", "setting": "[1]; observed for 14 days, all control mice died by the 10th day", "result": 65, "unit": "%"}, {"measurement": "changes in weight of the mice", "setting": "[2]", "result": "recovered normal weight by the 14th day"}, {"measurement": "effect on proliferation of T-cells induced by ConA", "setting": "T-cells [3]", "result": "selectively suppressed the proliferation of T-cells; also recorded: suppressed T-cells proliferated by ConA"}, {"measurement": "effect on proliferation of B-cells", "setting": "B-cells", "result": "could not suppress the proliferation of B-cells"}, {"measurement": "effect on expression of IL-2 mRNA", "setting": "IL-2 mRNA", "result": "did not influence the expression of IL-2 mRNA"}, {"measurement": "effect on expression of IL-2 receptor mRNA", "setting": "[4]", "result": "efficiently suppressed the expression of IL-2 mRNA"}, {"measurement": "effect of added IL-2 on the suppression of T-cell proliferation", "setting": "T-cells [5]", "result": "did not suppress the excessive amount of IL-2 that was added from the outside"}, {"measurement": "effect on IL-2-dependent T-cell proliferation", "setting": "IL-2 dependent T-cells", "result": "did not suppress the T-cell proliferation by IL-2"}]}
